According to patent publication US20100303790A1, “USE OF BILIVERDIN REDUCTASE (BVR) AND BVR PEPTIDE FRAGMENTS TO TREAT CORONARY DISORDERS” (UNIVERSITY OF ROCHESTER, priority 2009, published 2010):
“Also recorded” adds a separate entry of the source.

Experiments:
Type in all cases: in vivo, rat
[1] = system: cardiomyocytes in the intact heart; test: Langendorff perfused heart: apoptosis (TUNEL, genomic DNA fragmentation); conditions: for apoptosis in cardiomyocytes of the perfused heart (TUNEL): 0.1 μM ISO, peptides 25 μM together with ISO
From the text: Analysis of Apoptosis: The terminal deoxyribonucleotide transferase-mediated dUTP nick-end labeling (TUNEL) assay was used to detect in situ DNA fragmentation, using the In Situ Cell Death Detection Kit (Roche) as described previously (Ding et al., “Functional Role of Phosphodiesterase 3 in Cardiomyocyte Apoptosis: Implication in Heart Failure,” Circulation 111:2469-2476 (2005), which are hereby incorporated by reference in their entirety). In addition, the cells were stained for cardiomyocyte-specific sarcomeric α-actinin with the antibody EF-53 to distinguish cardiomyocytes from contaminating fibroblasts; and only EF-53 positive cells were counted. Three independent experiments were performed and an average of 1,000 EF-53 positive cells from random fields were analyzed.
DNA Electrophoresis: Total cellular DNA was isolated from untreated and treated cells by lysis in 10 mM Tris-HCl, pH 7.8; 1 mM, EDTA, 10 mM NaCl, 1% (w/v) SDS and 1 mg/ml proteinase K at 60° C. for 2 hours. The lysate was extracted twice each with phenol-choloroform (1:1, v/v) and chloroform, followed by precipitation with ethanol. The precipitate was collected by centrifugation, washed once in 70% ethanol, and resuspended in TE containing 1 mg/ml RNase at 37° C. for 30 min. DNA was resolved by electrophoresis in 2.0% agarose gels containing ethidium bromide.
(§1) In Vivo Experimental Langendorff Model: Male Sprague-Dawley rats weighing 250-300 g (Charles River, Boston, Mass.) were used in this study; the protocol is based on that described by Tompkins et al., “Mitochondrial Dysfunction in Cardiac Ischemia-Reperfusion Injury: ROS From Complex I, Without Inhibition,” Biochim Biophys Acta 1762:223-231 (2006), which is hereby incorporated by reference in its entirety, with minor modification. The rats were fed a standard rat chow and had water ad libitum. All experiments were approved by the University of Rochester Institutional Animal Care and Use Committee. Rats were given two subcutaneous injections of isoproterenol (ISO) (0.01 mg/kg), 6 hours apart, then anesthetized with freshly prepared Avertin (2,2,2-tribromoethanol, […] injected intraperitoneally), and treated with heparin (5000 U/kg), i.p., to protect the heart against microthrombi. The aorta was cannulated in situ with a 22-gauge needle filled with warm Krebs-Henseleit (KH) buffer. The heart was rapidly transferred (<10 s.) to a perfusion apparatus, and retrograde (Langendorff) perfusion begun with 37° C. KH buffer gassed with 95% O2 plus 5% CO2, in constant flow mode (12 ml/min). […] Hemodynamics and heart rate were recorded by inserting a water-filled balloon connected to a transducer (Radnoti LLC, model no. 159904B) into the left ventricle. […]

isolated perfused heart = test: Langendorff perfused heart: left ventricle contractile function and heart rate; conditions: for left ventricle contractile function (systolic pressure, developed pressure, dp/dt, -dp/dt): peptide 25 μM with 0.1 μM isoproterenol, vs isoproterenol alone
From the text: In Vivo Experimental Langendorff Model: Male Sprague-Dawley rats weighing 250-300 g (Charles River, Boston, Mass.) were used in this study; the protocol is based on that described by Tompkins et al., “Mitochondrial Dysfunction in Cardiac Ischemia-Reperfusion Injury: ROS From Complex I, Without Inhibition,” Biochim Biophys Acta 1762:223-231 (2006), which is hereby incorporated by reference in its entirety, with minor modification. The rats were fed a standard rat chow and had water ad libitum. All experiments were approved by the University of Rochester Institutional Animal Care and Use Committee. Rats were given two subcutaneous injections of isoproterenol (ISO) (0.01 mg/kg), 6 hours apart, then anesthetized with freshly prepared Avertin (2,2,2-tribromoethanol, […] injected intraperitoneally), and treated with heparin (5000 U/kg), i.p., to protect the heart against microthrombi. The aorta was cannulated in situ with a 22-gauge needle filled with warm Krebs-Henseleit (KH) buffer. The heart was rapidly transferred (<10 s.) to a perfusion apparatus, and retrograde (Langendorff) perfusion begun with 37° C. KH buffer gassed with 95% O2 plus 5% CO2, in constant flow mode (12 ml/min). Perfusion was performed using 0.1 μM ISO or KH buffer as a control; the hBVR-derived peptides KKRILHC^281 (25 μM) or KYCCSRK^296 (25 μM) were included in perfusion medium with or without ISO. Hemodynamics and heart rate were recorded by inserting a water-filled balloon connected to a transducer (Radnoti LLC, model no. 159904B) into the left ventricle. The transducer was connected to a data acquisition system (DATAQ Instrument, Akron Ohio, Model: DI-205). At the end of each experiment, the heart was cut into 5 μm sections for TUNEL study or homogenized for western blots.
The effect of peptides on the integrity of the heart was also examined in the perfusion system, by measuring left ventricle contractile function in the presence of isoproterenol as a function of time.

[2] = Langendorff perfused heart: BVR and HO-2 protein by western blot; conditions: 3 hours perfusion; for HO-2 protein expression: peptide 25 μM with 0.1 μM ISO; for BVR protein expression: peptide 25 μM
Procedure: Western Blot Analysis: Cell lysates were prepared by homogenization in RIPA buffer (40 mM Tris-HCl, pH 7.5, 1 mM EDTA, 1 mM DTT, 0.1 mM Na3VO4, 10 μg/ml aprotinin, 5 μg/ml pepstatin, 20 μg/ml leupeptin, 1 mM bezamidine followed by centrifugation at 800×g for 10 minutes at 4° C. (Ding et al., “Functional Role of Phosphodiesterase 3 in Cardiomyocyte Apoptosis: Implication in Heart Failure,” Circulation 111:2469-2476 (2005), which is hereby incorporated by reference in its entirety). Supernatant proteins were resolved by SDS-PAGE and transferred to nitrocellulose. Western blots were examined using antibodies against β-actin (Cell Signaling), BVR (Huang et al., “Detection of 10 Variants of Biliverdin Reductase in Rat Liver by Two-Dimensional Gel Electrophoresis,” J Biol Chem 264:7844-7849 (1989), which is hereby incorporated by reference in its entirety), HO-1, HO-2 (Panahian et al., “Site of Injury-Directed Induction of Heme Oxygenase-1 and -2 in Experimental Spinal Cord Injury Differential Functions in Neuronal Defense Mechanisms?” J Neurochem 76:539-554 (2001), which is hereby incorporated by reference in its entirety), and cleaved caspase-3 (Cell Signaling, Beverly Mass.). The secondary antibody was horseradish peroxidase-conjugated goat anti-rabbit IgG (1:2,000, Bio-Rad).
as §1

[3] = peptide 25 μM with isoproterenol

| Compound | apoptosis in cardiomyocytes of the perfused heart (TUNEL) [1] | heart rate, left ventricular systolic pressure, development pressure, dp/dt, -dp/dt over the course of the experiment (isolated perfused heart; 0.1 μM isoproterenol perfusion) | HO-2 protein expression [2] | BVR protein expression [2] | fragmentation of genomic DNA from perfused heart ([1]; peptide 25 μM with ISO) | left ventricle contractile function (systolic pressure, developed pressure, dp/dt, -dp/dt) (isolated perfused heart) | change in heart rate observed with isoproterenol alone (isolated perfused heart; [3]) | time after initiating perfusion by which the increased rate of decline was observed (isolated perfused heart; [3]) [min] |
| --- | --- | --- | --- | --- | --- | --- | --- | --- |
| CC(C)NCC(O)c1ccc(O)c(O)c1 (centres unmarked) [isoproterenol] | increased apoptosis | declined |  |  |  |  |  |  |
| KKRILHC (biliverdin reductase peptide) [KKRILHC^281] | increase in apoptosis; also recorded: significant increases in apoptosis |  | inhibited the BVR-induced HO-2 increase; also recorded: virtually eliminated the induction of HO-2 | do not affect protein expression | fragmentation is detectable | the rate of decline was increased; also recorded: significantly diminished cardiac function | Neither peptide affected the change in heart rate | ≤ 30 |
| KYCCSRK (biliverdin reductase peptide) [KYCCSRK^296] | decreased apoptosis; also recorded: nearly complete reduction in apoptosis |  | increased HO-2 protein expression; also recorded: greatly enhanced increase of HO-2 protein | do not affect protein expression |  | slowed the decrease in contractile function; also recorded: improved cardiac function | Neither peptide affected the change in heart rate |  |
